Experimental data from the CheMixHub viscosity set.

Experiment: xn = mol fraction of the nth substance listed

C1C[C@@H]2[C@H]3CC[C@H](C3)[C@@H]2C1 + c1ccc2c(c1)CCCC2
viscosity [mPa·s], 100 kPa
Details	x1 = 0.1003	x1 = 0.1991	x1 = 0.3022	x1 = 0.407	x1 = 0.4996	x1 = 0.5992	x1 = 0.7019	x1 = 0.7987	x1 = 0.8983
293.15 K	2.201	2.214	2.254	2.299	2.355	2.438	2.543	2.668	2.807
298.15 K	1.994	2.008	2.043	2.088	2.139	2.214	2.307	2.416	2.546
303.15 K	1.816	1.831	1.864	1.904	1.952	2.019	2.106	2.202	2.319
308.15 K	1.664	1.678	1.708	1.746	1.79	1.851	1.929	2.018	2.122
313.15 K	1.531	1.545	1.574	1.608	1.648	1.704	1.775	1.855	1.95
318.15 K	1.414	1.428	1.454	1.486	1.523	1.574	1.639	1.712	1.798
323.15 K	1.311	1.325	1.349	1.379	1.413	1.459	1.519	1.586	1.663

O=[N+]([O-])[O-].[Li+] + N
293.15 K, 101 kPa
Details	viscosity [mPa·s]
x1 = 0.026	0.168
x1 = 0.059	0.228
x1 = 0.096	0.32
x1 = 0.174	0.602

CCC(=O)O + O=[N+]([O-])c1ccccc1
viscosity [mPa·s], 101 kPa
Details	x1 = 0.1311	x1 = 0.2535	x1 = 0.3679	x1 = 0.4752	x1 = 0.5759	x1 = 0.6708	x1 = 0.7601	x1 = 0.8445	x1 = 0.9244
298.15 K	1.763	1.711	1.663	1.612	1.551	1.478	1.392	1.291	1.175
308.15 K	1.469	1.452	1.428	1.394	1.346	1.285	1.21	1.121	1.019
318.15 K	1.35	1.42	1.421	1.376	1.301	1.207	1.106	1.002	0.9012

O=C(O)c1ccccc1O + CCCO
viscosity [mPa·s]
Details	308.15 K	313.15 K	318.15 K	323.15 K
101 kPa, x1 = 0.133	2.13	–	–	1.51
101 kPa, x1 = 0.16	2.236	–	–	1.602
101 kPa, x1 = 0.179	2.427	–	–	1.69
101 kPa, x1 = 0.191	2.4	–	–	1.722
101.33 kPa, x1 = 0.16	2.236	2.012	1.791	1.602
101.33 kPa, x1 = 0.19	–	2.17	1.929	1.722

Nc1cccc(Cl)c1 + O=[N+]([O-])c1ccccc1
viscosity [mPa·s], 100 kPa
Details	x1 = 0.5896	x1 = 0.6785	x1 = 0.7825
303.15 K	–	–	3.915
318.15 K	2.615	2.755	–

C1C[C@@H]2[C@H]3CC[C@H](C3)[C@@H]2C1 + CCCCCCCC
viscosity [mPa·s], 100 kPa
Details	x1 = 0.1007	x1 = 0.2005	x1 = 0.2991	x1 = 0.4	x1 = 0.5001	x1 = 0.5986	x1 = 0.6988	x1 = 0.8019	x1 = 0.9005
293.15 K	0.616	0.697	0.806	0.956	1.085	1.282	1.537	1.896	2.342
298.15 K	0.582	0.655	0.756	0.892	1.007	1.187	1.415	1.735	2.13
303.15 K	0.551	0.618	0.711	0.83	0.94	1.102	1.311	1.597	1.95
308.15 K	0.523	0.585	0.67	0.78	0.879	1.027	1.215	1.475	1.793
313.15 K	0.499	0.555	0.634	0.733	0.825	0.96	1.13	1.367	1.654

Nc1cccc(Cl)c1 + Clc1ccccc1
Details	viscosity [mPa·s]
308.15 K, 100 kPa, x1 = 0.3821	2.145

[F-].[Na+] + O
viscosity [mPa·s], 101 kPa
Details	x1 = 0.0009	x1 = 0.0018	x1 = 0.002	x1 = 0.0027	x1 = 0.0036	x1 = 0.005	x1 = 0.009
303.15 K	0.809	0.82	0.819	0.826	0.835	0.853	0.896
308.15 K	0.734	0.746	0.747	0.755	0.761	0.775	0.81
313.15 K	0.667	0.682	–	0.688	0.694	0.707	0.738
318.15 K	0.61	0.621	0.623	0.629	0.635	0.648	0.675

ClCCCCCl + CC(C)CO
viscosity [mPa·s], 101 kPa
Details	x1 = 0.0994	x1 = 0.1958	x1 = 0.2938	x1 = 0.4026	x1 = 0.5	x1 = 0.6041	x1 = 0.7031	x1 = 0.801	x1 = 0.8984
298.15 K	2.524	2.027	1.715	1.501	1.371	1.285	1.236	1.208	1.215
313.15 K	1.648	1.381	1.207	1.097	1.02	0.977	0.9567	0.9491	0.9661

Nc1cccc(Cl)c1 + CCOCCO
303.15 K, 101 kPa
Details	viscosity [mPa·s]
x1 = 0.0966	2.028
x1 = 0.1696	2.159
x1 = 0.2725	2.333
x1 = 0.3613	2.473
x1 = 0.4791	2.643
x1 = 0.5648	2.755
x1 = 0.68	2.897
x1 = 0.7804	3.008
x1 = 0.8884	3.121

CCCCCCCCCCCCCC[P+](CCCCCC)(CCCCCC)CCCCCC.c1c[n-]nn1 + CCCCn1cc[n+](C)c1.O=S(=O)([N-]S(=O)(=O)C(F)(F)F)C(F)(F)F
viscosity [mPa·s], 100 kPa
Details	293.15 K	298.15 K	303.15 K	308.15 K	313.15 K	318.15 K	323.15 K
x1 = 0.1	98	77	61	49	–	–	–
x1 = 0.2	164	123	96	76	62	50	–
x1 = 0.278	242	178	135	107	84	68	56
x1 = 0.612	602	428	311	231	174	135	107
x1 = 0.699	663	468	339	252	190	147	115
x1 = 0.8	723	507	368	273	205	158	125
x1 = 0.9	685	486	353	263	199	154	123

CCCCCCCCCCCCCC[P+](CCCCCC)(CCCCCC)CCCCCC.c1c[n-]nn1 + O
Details	viscosity [mPa·s]
298.15 K, 100 kPa, x2 = 0.8003	106

O=C(O)c1ccccc1O + CO
viscosity [mPa·s]
Details	308.15 K	313.15 K	318.15 K	323.15 K
101 kPa, x1 = 0.13	1.049	–	–	0.8273
101 kPa, x1 = 0.14	1.086	–	–	0.8572
101 kPa, x1 = 0.15	1.118	–	–	0.8818
101 kPa, x1 = 0.17	1.262	–	–	0.9692
101.33 kPa, x1 = 0.13	1.049	0.9732	0.8932	0.8273
101.33 kPa, x1 = 0.15	1.118	1.036	0.9552	0.8818

CC(=O)CCC(=O)O + C[N+](C)(C)CCO.[Cl-]
viscosity [mPa·s]
Details	293.15 K	298.15 K	303.15 K	308.15 K	313.15 K	318.15 K	323.15 K
100 kPa, x2 = 0.33	320.6	226.8	164.5	122.5	93.62	72.54	57.48
101 kPa, x1 = 0.75	134.2	–	79.14	–	47.76	–	31.29
101 kPa, x2 = 0.25	–	132.9	–	–	–	46.9	–
101 kPa, x2 = 0.333	–	207.8	–	–	–	68	–
